Data as given in patent US11530200B2, “Compounds” (Inflazome Limited, priority 2018, dated 2022).
pIC50: −log10 of the molar value. Counter-ions that a name gives are not always drawn.

Biological target: NLRP3 (Homo sapiens (Human), UniProt Q96P20)
Assay: THP-1 cells pyroptosis assay (LPS priming, nigericin, resazurin readout)
Assay type: cell-based
Conditions: 1.0 μg/ml LPS, nigericin 5 μM, NLRP3 inhibitory activity
Protocol: THP-1 cells (ATCC #TIB-202) were grown in RPMI containing L-glutamine (Gibco #11835) supplemented with 1 mM sodium pyruvate (Sigma #S8636) and penicillin (100 units/ml)/streptomycin (0.1 mg/ml) (Sigma #P4333) in 10% Fetal Bovine Serum (FBS) (Sigma #F0804). The cells were routinely passaged and grown to confluency (10^6 cells/ml). On the day of the experiment, THP-1 cells were harvested and resuspended into RPMI medium (without FBS). The cells were then counted and viability (>90%) checked by Trypan blue (Sigma #T8154). Appropriate dilutions were made to give a concentration of 625,000 cells/ml. To this diluted cell solution was added LPS (Sigma #L4524) to give a 1 μg/ml Final Assay Concentration (FAC). 40 μl of the final preparation was aliquoted into each well of a 96-well plate. The plate thus prepared was used for compound screening. The following method step-by-step assay was followed for compound screening. • 1. Seed THP-1 cells (25,000 cells/well) containing 1.0 μg/ml LPS in 40 μl of RPMI medium (without FBS) in 96-well, black walled, clear bottom cell culture plates coated with poly-D-lysine (VWR #734-0317) • 2. Add […] compound (8 points half-log dilution, with […] top dose) or vehicle (DMSO 0.1% FAC) to the appropriate wells • 3. Incubate for 3 hrs at 37° C., 5% CO2 • 4. Add 5 μl nigericin (Sigma #N7143) (FAC 5 μM) to all wells • 5. Incubate for 1 hr at 37° C., 5% CO2 • 6. At the end of the incubation period, spin plates at 300×g for 3 mins and remove supernatant • 7. Then add 50 μl of resazurin (Sigma #R7017) (FAC 100 μM resazurin in RPMI medium without FBS) and incubate plates for a further 1-2 hrs at 37° C. and 5% CO2 • 8. Plates were read in an Envision reader at Ex 560 nm and Em 590 nm • 9. IC50 data is fitted to a non-linear regression equation (log inhibitor vs response-variable slope 4-parameters) The results of the pyroptosis assay are summarised in Table 1 below as THP IC50.

Sequence of NLRP3 (Q96P20 whole entry): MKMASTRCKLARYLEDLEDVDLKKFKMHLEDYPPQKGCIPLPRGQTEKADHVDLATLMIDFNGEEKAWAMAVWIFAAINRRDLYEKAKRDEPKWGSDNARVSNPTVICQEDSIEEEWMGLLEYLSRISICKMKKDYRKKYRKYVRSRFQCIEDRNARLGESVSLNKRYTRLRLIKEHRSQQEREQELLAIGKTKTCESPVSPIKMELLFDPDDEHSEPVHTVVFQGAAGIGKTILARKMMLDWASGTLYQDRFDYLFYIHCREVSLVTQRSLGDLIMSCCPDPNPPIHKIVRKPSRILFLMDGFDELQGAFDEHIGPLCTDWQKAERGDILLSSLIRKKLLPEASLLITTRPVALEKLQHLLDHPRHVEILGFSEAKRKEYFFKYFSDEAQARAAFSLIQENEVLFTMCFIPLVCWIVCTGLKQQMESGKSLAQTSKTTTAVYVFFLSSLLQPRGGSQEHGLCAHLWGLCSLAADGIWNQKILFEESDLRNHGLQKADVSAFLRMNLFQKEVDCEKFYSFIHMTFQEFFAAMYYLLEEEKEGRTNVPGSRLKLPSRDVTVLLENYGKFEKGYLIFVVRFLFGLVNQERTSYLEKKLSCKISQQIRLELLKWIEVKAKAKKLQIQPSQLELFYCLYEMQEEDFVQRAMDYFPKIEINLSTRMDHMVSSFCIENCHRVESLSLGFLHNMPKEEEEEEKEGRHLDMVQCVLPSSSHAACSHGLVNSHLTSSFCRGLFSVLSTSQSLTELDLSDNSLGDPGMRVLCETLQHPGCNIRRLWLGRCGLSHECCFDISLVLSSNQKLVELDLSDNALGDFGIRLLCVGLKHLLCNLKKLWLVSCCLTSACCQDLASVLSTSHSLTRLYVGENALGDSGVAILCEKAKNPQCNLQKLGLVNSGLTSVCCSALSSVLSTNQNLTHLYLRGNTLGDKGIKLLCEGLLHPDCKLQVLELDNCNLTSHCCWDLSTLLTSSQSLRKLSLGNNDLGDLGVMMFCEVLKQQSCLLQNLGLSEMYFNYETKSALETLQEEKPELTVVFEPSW

Row | SMILES | pIC50
1 | N#Cc1cc(-c2ccc3c(c2CC(=O)NS(=O)(=O)c2ccn(C4CC4)n2)CCC3)ccn1 [Example 1, 2-(5-(2-Cyanopyridin-4-yl)-2,3-dihydro-1H-inden-4-yl)-N-((1-cyclopropyl-1H-pyrazol-3-yl)sulfonyl)acetamide] | 5.30 to 6.00
2 | CC(C)c1cc(F)cc(-c2ccncc2)c1CC(=O)NS(=O)(=O)c1ccn(C2CC2)n1 [Example 2, N-((1-Cyclopropyl-1H-pyrazol-3-yl)sulfonyl)-2-(4-fluoro-2-isopropyl-6-(pyridin-4-yl)phenyl)acetamide, potassium salt] | ≥ 6.00
3 | COc1cc(-c2cc(F)cc(C(C)C)c2CC(=O)NS(=O)(=O)c2cn(C3CC3)cn2)ccn1 [Example 3, N-((1-Cyclopropyl-1H-imidazol-4-yl)sulfonyl)-2-(4-fluoro-2-isopropyl-6-(2-methoxypyridin-4-yl)phenyl)acetamide] | 5.30 to 6.00
4 | COc1cc(-c2cc(F)cc(C(C)C)c2CC(=O)NS(=O)(=O)c2ccn(C3CC3)n2)ccn1 [Example 4, N-((1-Cyclopropyl-1H-pyrazol-3-yl)sulfonyl)-2-(4-fluoro-2-isopropyl-6-(2-methoxypyridin-4-yl)phenyl)acetamide] | 5.30 to 6.00
5 | COc1cc(-c2ccc3c(c2CC(=O)NS(=O)(=O)c2cnn(C4CC4)n2)CCC3)ccn1 [Example 5, N-((2-Cyclopropyl-2H-1,2,3-triazol-4-yl)sulfonyl)-2-(5-(2-methoxypyridin-4-yl)-2,3-dihydro-1H-inden-4-yl)acetamide] | 5.00 to 5.30
6 | CC(C)c1cc(F)cc(-c2cccnc2)c1CC(=O)NS(=O)(=O)c1cn(C2CC2)cn1 [Example 6, N-((1-Cyclopropyl-1H-imidazol-4-yl)sulfonyl)-2-(4-fluoro-2-isopropyl-6-(pyridin-3-yl)phenyl)acetamide] | 5.00 to 5.30
7 | CC(C)c1cc(F)cc(-c2ccnc(C#N)c2)c1CC(=O)NS(=O)(=O)c1cnn(C2CC2)n1 [Example 7, 2-(2-(2-Cyanopyridin-4-yl)-4-fluoro-6-isopropylphenyl)-N-((2-cyclopropyl-2H-1,2,3-triazol-4-yl)sulfonyl)acetamide] | 5.00 to 5.30
8 | N#Cc1cc(-c2ccc3c(c2CC(=O)NS(=O)(=O)c2cnn(C4CC4)n2)CCC3)ccn1 [Example 8, 2-(5-(2-Cyanopyridin-4-yl)-2,3-dihydro-1H-inden-4-yl)-N-((2-cyclopropyl-2H-1,2,3-triazol-4-yl)sulfonyl)acetamide] | 5.30 to 6.00
9 | CC(C)c1cc(F)cc(-c2ccnc(C#N)c2)c1CC(=O)NS(=O)(=O)c1cnn(C2CC2)c1 [Example 9, 2-(2-(2-Cyanopyridin-4-yl)-4-fluoro-6-isopropylphenyl)-N-((1-cyclopropyl-1H-pyrazol-4-yl)sulfonyl)acetamide] | 5.00 to 5.30
10 | COc1cc(-c2cc(F)cc(C(C)C)c2C(O)C(=O)NS(=O)(=O)c2cnn(C3CC3)c2)ccn1 (stereo not drawn) [Example 10, N-((1-Cyclopropyl-1H-pyrazol-4-yl)sulfonyl)-2-(4-fluoro-2-isopropyl-6-(2-methoxypyridin-4-yl)phenyl)-2-hydroxyacetamide] | 5.00 to 5.30
11 | COC1(c2cc(S(=O)(=O)NC(=O)Cc3c4c(cc5c3CCC5)CCC4)nn2C(C)C)COC1 [Example 12, 2-(1,2,3,5,6,7-Hexahydro-s-indacen-4-yl)-N-((1-isopropyl-5-(3-methoxyoxetan-3-yl)-1H-pyrazol-3-yl)sulfonyl)acetamide] | 5.30 to 6.00
12 | COC1(c2cc(S(=O)(=O)NC(=O)Cc3c(-c4ccnc(C#N)c4)ccc4c3CCC4)nn2C(C)C)COC1 [Example 13, 2-(5-(2-Cyanopyridin-4-yl)-2,3-dihydro-1H-inden-4-yl)-N-((1-isopropyl-5-(3-methoxyoxetan-3-yl)-1H-pyrazol-3-yl)sulfonyl)acetamide, potassium salt] | 5.00 to 5.30
13 | COC1(c2cc(S(=O)(=O)NC(=O)Cc3c4c(cc5c3CCC5)CCC4)nn2C2CC2)COC1 [Example 14, N-((1-Cyclopropyl-5-(3-methoxyoxetan-3-yl)-1H-pyrazol-3-yl)sulfonyl)-2-(1,2,3,5,6,7-hexahydro-s-indacen-4-yl)acetamide] | 5.30 to 6.00
14 | CC(c1cc(S(=O)(=O)NC(=O)Cc2c3c(cc4c2CCC4)CCC3)nn1C1CC1)N(C)C (stereo not drawn) [Example 15, N-((1-Cyclopropyl-5-(1-(dimethylamino)ethyl)-1H-pyrazol-3-yl)sulfonyl)-2-(1,2,3,5,6,7-hexahydro-s-indacen-4-yl)acetamide] | 5.30 to 6.00
15 | CC(C)c1cc(F)cc(C(C)C)c1CC(=O)NS(=O)(=O)c1cc(CN(C)C)n(C2CC2)n1 [Example 16, N-((1-Cyclopropyl-5-((dimethylamino)methyl)-1H-pyrazol-3-yl)sulfonyl)-2-(4-fluoro-2,6-diisopropylphenyl)acetamide] | 5.30 to 6.00
16 | COc1cc(-c2ccc3c(c2CC(=O)NS(=O)(=O)c2ccn(C4CC4)n2)CCC3)ccn1 [Example 17, N-((1-Cyclopropyl-1H-pyrazol-3-yl)sulfonyl)-2-(5-(2-methoxypyridin-4-yl)-2,3-dihydro-1H-inden-4-yl)acetamide] | 5.30 to 6.00
17 | O=C(Cc1c2c(cc3c1CCC3)CCC2)NS(=O)(=O)c1ccn(C2CC2)n1 [Example 19, N-((1-Cyclopropyl-1H-pyrazol-3-yl)sulfonyl)-2-(1,2,3,5,6,7-hexahydro-s-indacen-4-yl)acetamide] | 5.00 to 5.30
18 | COc1cc(-c2cc(F)cc(C(C)C)c2CC(=O)NS(=O)(=O)c2cnn(C3CC3)n2)ccn1 [Example 20, N-((2-Cyclopropyl-2H-1,2,3-triazol-4-yl)sulfonyl)-2-(4-fluoro-2-isopropyl-6-(2-methoxypyridin-4-yl)phenyl)acetamide] | 5.30 to 6.00
19 | CC(C)c1cc(F)cc(-c2cccnc2)c1CC(=O)NS(=O)(=O)c1ncn(C2CC2)n1 [Example 22, N-((1-Cyclopropyl-1H-1,2,4-triazol-3-yl)sulfonyl)-2-(4-fluoro-2-isopropyl-6-(pyridin-3-yl)phenyl)acetamide] | 5.30 to 6.00
20 | COc1cc(-c2ccc3c(c2CC(=O)NS(=O)(=O)c2cnn(C4CC4)c2)CCC3)ccn1 [Example 23, N-((1-Cyclopropyl-H-pyrazol-4-yl)sulfonyl)-2-(5-(2-methoxypyridin-4-yl)-2,3-dihydro-1H-inden-4-yl)acetamide] | 5.30 to 6.00
21 | CC(C)c1cc(F)cc(C(C)C)c1CC(=O)NS(=O)(=O)c1ncn(C2CC2)n1 [Example 25, N-((1-Cyclopropyl-H-1,2,4-triazol-3-yl)sulfonyl)-2-(4-fluoro-2,6-diisopropylphenyl)acetamide] | 5.00 to 5.30
22 | CC(C)c1cc(F)cc(C(C)C)c1CC(=O)NS(=O)(=O)c1cnn(C2CC2)n1 [Example 26, N-((2-Cyclopropyl-2H-1,2,3-triazol-4-yl)sulfonyl)-2-(4-fluoro-2,6-diisopropylphenyl)acetamide] | 5.30 to 6.00
23 | CC(C)c1cc(F)cc(-c2cccnc2)c1CC(=O)NS(=O)(=O)c1cnn(C2CC2)n1 [Example 27, N-((2-Cyclopropyl-2H-1,2,3-triazol-4-yl)sulfonyl)-2-(4-fluoro-2-isopropyl-6-(pyridin-3-yl)phenyl)acetamide] | 5.30 to 6.00
24 | CC(C)c1cc(F)cc(C(C)C)c1CC(=O)NS(=O)(=O)c1cn(C2CC2)cn1 [Example 28, N-((1-Cyclopropyl-1H-imidazol-4-yl)sulfonyl)-2-(4-fluoro-2,6-diisopropylphenyl)acetamide] | 5.30 to 6.00
25 | COC1(c2cc(S(=O)(=O)NC(=O)Cc3c(C(C)C)cc(F)cc3C(C)C)nn2C(C)C)COC1 [Example 29, 2-(4-Fluoro-2,6-diisopropylphenyl)-N-((1-isopropyl-5-(3-methoxyoxetan-3-yl)-1H-pyrazol-3-yl)sulfonyl)acetamide] | 5.30 to 6.00
26 | N#Cc1cc(-c2ccc3c(c2CC(=O)NS(=O)(=O)c2cnn(C4CC4)c2)CCC3)ccn1 [Example 30, 2-(5-(2-Cyanopyridin-4-yl)-2,3-dihydro-H-inden-4-yl)-N-((1-cyclopropyl-1H-pyrazol-4-yl)sulfonyl)acetamide] | 5.00 to 5.30
27 | CC(C)c1cc(F)cc(-c2ccnc(C#N)c2)c1CC(=O)NS(=O)(=O)c1cn(C2CC2)cn1 [Example 31, 2-(2-(2-Cyanopyridin-4-yl)-4-fluoro-6-isopropylphenyl)-N-((1-cyclopropyl-1H-imidazol-4-yl)sulfonyl)acetamide] | 5.00 to 5.30
